Consider twelve compounds from patent US20030124718A1, “Vaccine composition” (priority 2001, published 2003).

For test [1], the system named is SIV gag recombinant protein. Put plainly: Proliferation analysis of PBMC. The format is in vivo, rhesus macaques. The settings on record: proliferative responses to SIV gag. Here is the method:
At each time point PBMC were isolated from whole blood by density gradient centrifugation over Ficoll-Hypaque and resuspended in complete RPMI media containing 10% human serum (R10 medium). In 96-well flat bottom plates, 2×10^5 PBMC/well were incubated for 6 days with 0.2 μg/well protein in R10 media. PBMC were stimulated 10 μg/ml of SIV gag recombinant protein (Intracel). Sixteen hours before the end of the assay, each well was pulsed with 1 μCi ^3H-thymidine. Cells were harvested and the isotope incorporation measured by scintillation spectroscopy. All assays were performed in triplicates.
Proliferative responses to SIV gag were measured during combined PMPA+DNA vaccine therapy (weeks 0-28) and after discontinuation of therapy (weeks 30-46 to date).

The next test relates to SIV/DeltaB670. As to the kind of experiment: Plasma viral loads (real time PCR) after SIV challenge, PMPA + DNA vaccine immunotherapy. (In qPCR the cycle at which signal appears reflects the starting amount.)
The test system of test [2] is SIV-specific CD8+ T cell responses. As to the kind of experiment: IFNγ ELISPOT of epitope-specific CD8+ T cell responses in DNA-immunized / SIV-infected macaques. The format is in vivo, rhesus macaques. The note with it: for Epitope-specific responses, Group A monkeys, 2 weeks post-SIV infection / Epitope-specific responses, Group A monkeys, Post-immunization, Pre-infection / Epitope-specific responses, Group C monkeys, 2 weeks post-SIV infection: ELISPOT; for Epitope-specific responses, Group A monkeys, 2 weeks post-SIV infection / Epitope-specific responses, Group A monkeys, Post-immunization, Pre-infection: Mamu-A*01 positive macaques immunized before and after infection; for Epitope-specific responses, Group A monkeys, Post-immunization, Pre-infection: after DNA immunization, before SIV infection; for Epitope-specific responses, Group C monkeys, 2 weeks post-SIV infection: Mamu-A*01 positive macaques immunized only after infection; for CD8+ T cell response against peptide after DNA immunization: Group A monkeys, ELISPOT after 1st-4th DNA immunization. Here is the method:
Each monkey received a total of 4 immunizations consisting of 32.0 μg DNA (3.2 μg of each DNA vector) per immunization spaced 4-8 weeks apart. The epitope specificity of the CD8+ T cell responses was determined by ELISPOT following the 1st, 2nd, 3rd or 4th DNA immunization.
ELISPOTs were performed essentially as described (Roy et al. 2000). Briefly, antibody pairs against rhesus monkey IFNγ (Cytech-BV, Amsterdam, The Netherlands) were used to measure the number of r cells that secrete IFNγ. PBMC were cultured at 2 different dilutions in 96 well nitrocellulose filter plates (Millipore) previously coated with anti-cytokine mAbs. ^2 μg/ml of the appropriate MamuA*01 CTL peptide or pepset (Chiron) was then added.
CD8+ T cell responses were measured by ELISPOT. In A*01 positive monkeys, the average cumulative ELISPOT was determined at each timepoint by measuring responses following stimulation with 10 representative epitopes included in the vaccine. In A*01 negative monkeys, cumulative ELISPOT values were determined using gag and tat peptide pools.

The conditions of test [3]: Table 1 characteristics, from references; cited from earlier work.
For the next test, the system named is MHC. The settings on record: Table 1 characteristics, from references; cited from earlier work.

For the compound `C[C@H](Cn1cnc2c(N)ncnc21)OCP(=O)(O)O` [Group E], in test [1] (after discontinuing therapy, weeks 30-46), the “Average Stimulation Index +/− SE post-therapy (wks 30-46)” value is recorded as 1.4 +/− 0.2. Further, the “Average Stimulation Index +/− SE during therapy (wks 0-28)” value in test [1] (combined PMPA + DNA vaccine therapy, weeks 0-28) is listed as 1.8 +/− 0.5. The “Geometric mean virus loads during therapy with DNA vaccines + PMPA (weeks 5-28)” value in the test with SIV/DeltaB670 (weeks 5-28, during therapy) was 7,192 no. of copies of viral RNA/ml plasma. In addition, in the test on SIV/DeltaB670 (weeks 5-28, during therapy with DNA vaccines + PMPA), the “Immunotherapeutic efficacy: number of monkeys maintaining virus loads at < 5000 viral RNA copies/ml plasma, during therapy (weeks 5-28)” value is 4/8. The “Geometric mean virus loads after discontinuation of drug and vaccine therapy (weeks 30-46)” value in the test on SIV/DeltaB670 (weeks 30-46, after discontinuation) is 38,428 no. of copies of viral RNA/ml plasma. The “Immunotherapeutic efficacy: number of monkeys maintaining virus loads at < 5000 viral RNA copies/ml plasma, after discontinuation (weeks 30-46)” value with SIV/DeltaB670 (weeks 30-46, after discontinuation of drug and vaccine therapy) is 1/8.

With CAPPGYALL [Env235-243CL9], in test [2], the “Epitope-specific responses, Group A monkeys, 2 weeks post-SIV infection” value is listed as “+/+ (A + response = a minimum of 25 spot forming cells/1 × 10^6 PBMC was detected in at least 1 of the 8 monkeys per group)”; the “Epitope-specific responses, Group A monkeys, Post-immunization, Pre-infection” value (from here on “Epitope-specific responses … Pre-infection”) is on record as “+/+ (A + response = a minimum of 25 spot forming cells/1 × 10^6 PBMC was detected in at least 1 of the 8 monkeys per group)”; the “Epitope-specific responses, Group C monkeys, 2 weeks post-SIV infection” value is given as “NA/+ (A + response = a minimum of 25 spot forming cells/1 × 10^6 PBMC was detected in at least 1 of the 8 monkeys per group)”; the “CD8+ T cell response against peptide after DNA immunization” value (“CD8+ T cell response against peptide” for short) is listed as “Significant responses”.

For CTPYDINQM [Gag181-189CM9], in test [2], the “Epitope-specific responses, Group A monkeys, 2 weeks post-SIV infection” value is listed as “+/+ (A + response = a minimum of 25 spot forming cells/1 × 10^6 PBMC was detected in at least 1 of the 8 monkeys per group)”; the “Epitope-specific responses … Pre-infection” value is listed as “+/+ (A + response = a minimum of 25 spot forming cells/1 × 10^6 PBMC was detected in at least 1 of the 8 monkeys per group)”; the “Epitope-specific responses, Group C monkeys, 2 weeks post-SIV infection” value is given as “NA/+ (A + response = a minimum of 25 spot forming cells/1 × 10^6 PBMC was detected in at least 1 of the 8 monkeys per group)”; the “CD8+ T cell response against peptide” value is “Significant responses”.

Regarding FRKQNPDIVIYQYMDDLYVG, the immunogenicity entry in test [3] is “epitope, strong”.

With GSPAIFQYTM [Pol359-365GM10], in test [2], the “Epitope-specific responses, Group A monkeys, 2 weeks post-SIV infection” value is listed as “+/+ (A + response = a minimum of 25 spot forming cells/1 × 10^6 PBMC was detected in at least 1 of the 8 monkeys per group)”; the “Epitope-specific responses … Pre-infection” value was “+/+ (A + response = a minimum of 25 spot forming cells/1 × 10^6 PBMC was detected in at least 1 of the 8 monkeys per group)”; the “CD8+ T cell response against peptide” value is given as “Significant responses”.

ILKEPVHGVY: in the test with MHC, the “binding affinity to MHC” value was “CTL epitope, high”. Further, the immunogenicity entry in test [3] is listed as “MHC, strong”.

LAPVPIPFA [Gag372-380LA9]: in test [2], the “Epitope-specific responses, Group A monkeys, 2 weeks post-SIV infection” value was “+/+ (A + response = a minimum of 25 spot forming cells/1 × 10^6 PBMC was detected in at least 1 of the 8 monkeys per group)”; the “Epitope-specific responses … Pre-infection” value is “+/+ (A + response = a minimum of 25 spot forming cells/1 × 10^6 PBMC was detected in at least 1 of the 8 monkeys per group)”; the “CD8+ T cell response against peptide” value is given as “Significant responses”.

For LLWKGEGAV, the “binding affinity to MHC” value with MHC was “CTL epitope, high”. Moreover, the immunogenicity entry in test [3] was “MHC, strong”.

On to QVPSLQYLA [Vifl44-152QA9], for which, in test [2], the “Epitope-specific responses, Group A monkeys, 2 weeks post-SIV infection” value is listed as “+/+ (A + response = a minimum of 25 spot forming cells/1 × 10^6 PBMC was detected in at least 1 of the 8 monkeys per group)”; the “Epitope-specific responses … Pre-infection” value was “+/+ (A + response = a minimum of 25 spot forming cells/1 × 10^6 PBMC was detected in at least 1 of the 8 monkeys per group)”; the “Epitope-specific responses, Group C monkeys, 2 weeks post-SIV infection” value was “NA/+ (A + response = a minimum of 25 spot forming cells/1 × 10^6 PBMC was detected in at least 1 of the 8 monkeys per group)”; the “CD8+ T cell response against peptide” value was “Significant responses”.

With RIQRGPGRAFVTIGK, the immunogenicity result in test [3] is given as “epitopes, highly”.

STPESANL [Tat28-35SL8]: in test [2], the “Epitope-specific responses, Group A monkeys, 2 weeks post-SIV infection” value is recorded as “+/+ (A + response = a minimum of 25 spot forming cells/1 × 10^6 PBMC was detected in at least 1 of the 8 monkeys per group)”; the “Epitope-specific responses … Pre-infection” value is recorded as “+/+ (A + response = a minimum of 25 spot forming cells/1 × 10^6 PBMC was detected in at least 1 of the 8 monkeys per group)”; the “Epitope-specific responses, Group C monkeys, 2 weeks post-SIV infection” value is on record as “NA/+ (A + response = a minimum of 25 spot forming cells/1 × 10^6 PBMC was detected in at least 1 of the 8 monkeys per group)”; the “CD8+ T cell response against peptide” value is listed as “Significant responses”.

Regarding TVPWPNASL [Env622-630TL9], in test [2], the “Epitope-specific responses, Group A monkeys, 2 weeks post-SIV infection” value is given as “+/+ (A + response = a minimum of 25 spot forming cells/1 × 10^6 PBMC was detected in at least 1 of the 8 monkeys per group)”; the “Epitope-specific responses … Pre-infection” value is listed as “+/+ (A + response = a minimum of 25 spot forming cells/1 × 10^6 PBMC was detected in at least 1 of the 8 monkeys per group)”; the “CD8+ T cell response against peptide” value is listed as “Significant responses”.
